# From patent US20220160712A1, “METHODS OF TREATING RHEUMATOID ARTHRITIS AND FOR PREDICTING THE RESPONSE TO METHOTREXATE” (CHAN ZUCKERBERG BIOHUB, INC., priority 2020, published 2022)
# Assays:
# human gut microbiota = assay: MTX treatment of gnotobiotic mice colonized with human stool; 16S-seq and qPCR of gut microbiota; format: in vivo; details: for gut microbial community structure, ANOSIM R: p=0.006; for shift in gut microbiota, ANOSIM R: Day 0 vs. 2
# [1] = system: complex human gut microbial community; assay: Ex vivo incubation of RA patient stool samples with MTX; format: cell-based
# Method: All work was carried out in an anaerobic chamber. For each patient, stool was aliquoted into a pre-equilibrated cryovial, diluted in reduced PBS at 10 ml per 1 gram of stool, and vortexed to homogenize the sample. The sample was spun at ˜20 g for 1 minute on a mini-centrifuge to facilitate settling of sediment, and the sediment-free supernatant was then aliquoted into a new pre-equilibrated cryovial for evaluation of ex vivo growth. Growth was evaluated by inoculating liquid BHI with 1:50 dilution of this fecal slurry, with OD600 readings performed every 15 minutes for 48 hours with a 2-minute shake prior to each reading. Samples were treated with MTX 100 μg/ml or an equal volume of DMSO at time zero. Each patient's fecal slurry and treatment was evaluated in quadruplicate. Samples from four individuals (Donors 2, 4, 5, and 6) underwent 16S sequencing and analysis at 0 and 24 hours after of treatment with either DMSO or MTX treatments (4 replicates per treatment group) as described in the section titled “16S-seq of humanized mouse gut microbiota.”
# Reads that were not already demultiplexed were demultiplexed using QIIME (Caporaso et al., 2010) v1.9.1 (split_libraries_fastq.py). For all reads except NYU RA patient samples, QIIME2 (Bolyen et al., 2019)(v 2020.2) was used to trim reads, denoise the data, and create a feature table using the following commands: qiime cutadapt trim-paired, qiime dada2 denoise-paired, qiime feature-table filter-samples. Within QIIME2, taxonomy was assigned using the DADA2 et al., (2016), Nat Methods 13, 581-583) implementation of the RDP Naïve Bayesian classifier (Wang, Q., et al., (2007), Appl Environ Microbiol 73, 5261-5267) using the DADA2-formatted SILVA v128 training set; taxonomic assignments to the species level were chosen by exact match of the ASV to the reference database, and where multiple matches were present, all are reported. For figures and in the text, genus and species assignments are reported when available, and when neither was available, the family taxonomic assignment was included; a unique ASV identifier is also reported. This ASV identifier can be used to look up the full taxonomic assignment from kingdom to species and the associated sequence variant in Table S2B. A phylogenetic tree was constructed in QIIME2 using the command: phylogeny align-to-tree-mafft-fasttree. The QIIME2R package was used to import QIIME2 artefacts into R (https://github.com/jbisanz/qiime2R). For RA patient samples from NYU, reads were demultiplexed using QIIME (Caporaso et al., 2010) v1.9.1 (split_libraries_fastq.py) before denoising and processing with DADA2 (Callahan et al., 2016a) v1.1.5 under MRO v3.2.5. Taxonomy was assigned using the DADA2 implementation of the RDP classifier (Wang et al., 2007) using the DADA2-formatted SILVA v128 training set (benjjneb.github.io/dada2/assign.html). Low abundance taxa were filtered out […] as well as ASVs that could not be assigned taxonomy past the kingdom level. Diversity metrics were generated using Vegan (v2.5-6) and Phyloseq (v1.30.0) (McMurdie, P.J., and Holmes, S. (2013), PLoS One 8, e61217), with principal coordinate analysis (PCoA) or principal components analysis (PCA) carried out with Ape (v5.3) or Vegan, respectively. Analyses were carried out on either: (1) centered log2-ratio (clr) normalized taxonomic abundances calculated as Aclr=[log2(A1/ga), log2(A2/ga), . . . log2(An/ga),], where A is a vector of non-zero read counts and ga is the geometric mean of all values of A, or (2) relative abundance calculated as proportion of reads. ANOSIM and PERMANOVA were used to detect changes in community composition using counts from rarefied data and Bray-Curtis distances. DESeq2 (v1.26.0) (Love, M. I., et al., (2014), Genome Biol 15, 550) was used to determine differentially abundant taxa on raw count data. Some ASVs were reported to have log2 fold changes that were 20 or higher. […]
# [2] = Donor 2, individually housed mice, MTX 50 mg/kg
# [3] = combined gnotobiotic experiments, multi-factor design, padj<0.05, DESeq
# [4] = MTX 100 μg/ml, 24 hours, 4 ex vivo communities, padj<0.01
smiles,measurement,setting,value
"CN(Cc1cnc2nc(N)nc(N)c2n1)c1ccc(C(=O)N[C@@H](CCC(=O)O)C(=O)O)cc1 [MTX, methotrexate]",Total colonization (16S copy number per gram stool),"human gut microbiota; Donor 1 (healthy) humanized mice, oral vehicle, 1 mg/kg or 50 mg/kg MTX, 4 days",comparable between groups
same,microbial richness (number of ASVs),"human gut microbiota; Donor 1 humanized mice, oral vehicle, 1 mg/kg or 50 mg/kg MTX, 4 days",comparable between groups
same,number of low-dose ASVs also altered in a consistent direction in the high-dose group,"human gut microbiota; Donor 1 mice, 1 mg/kg and 50 mg/kg",19
same,"gut microbial community structure, ANOSIM R","human gut microbiota; Donor 1 mice, after 1 day of treatment",0.60
same,"gut microbial community structure, ANOSIM R","human gut microbiota; Donor 1 mice, final day of treatment",0.75
same,number of bacterial genera altered,"human gut microbiota; Donor 1 mice, high-dose MTX 50 mg/kg",14
same,Bacteroidetes phylum compared to vehicle controls,"human gut microbiota; Donor 1 mice, high-dose MTX 50 mg/kg oral, Day 4 DESeq padj=0.001",significantly decreased
same,number of amplicon sequence variants (ASVs) altered,"human gut microbiota; Donor 1 mice, high-dose MTX 50 mg/kg, DESeq padj<0.01, Day 4",81
same,number of ASVs significantly altered,"human gut microbiota; Donor 1 mice, low-dose MTX 1 mg/kg",26
same,"Bacteroidetes longitudinal trend, slope (generalized linear mixed-effects model)","human gut microbiota; Donor 1 mice, p=0.007",−0.066
same,Microbial richness,"human gut microbiota; Donor 2 (treatment naive RA patient), individually housed mice, MTX 50 mg/kg, p=0.4",comparable between groups
same,number of ASVs with changed abundance,human gut microbiota; [2],23
same,number of genera with changed abundance,human gut microbiota; [2],8
same,phylum level changes,human gut microbiota; [2],No phylum level changes were detected
same,ASV23 (Bacteroides faecichinchillae/faecis/finegoldii/thetaiotaomicron) abundance,"human gut microbiota; Donor 2, individually housed mice, high-dose MTX (FIG. 7B)",reduced
same,ASV296 (Lachnoclostridium) abundance,"human gut microbiota; Donor 2, individually housed mice, high-dose MTX (FIG. 7C)",reduced
same,Dielma fastidiosa (ASV72) abundance,"human gut microbiota; Donor 2, individually housed mice, high-dose MTX (FIG. 7D)",decreased
same,ASV908 (Paraprevotella) abundance,"human gut microbiota; Donor 2, individually housed mice, high-dose MTX (FIG. 7E)",increased
same,number of ASVs with consistent shifts overlapping between route and rescue,"human gut microbiota; Donor 3 mice, MTX 50 mg/kg",41
same,"shift in gut microbiota, ANOSIM R","human gut microbiota; Donor 3 mice, rescue experiment (oral MTX with or without folic acid), p=0.002",0.99
same,"shift in gut microbiota, ANOSIM R","human gut microbiota; Donor 3 mice, route experiment (oral or IP MTX 50 mg/kg), p=0.007",0.89
same,number of ASVs differentially abundant,human gut microbiota; [3],61
same,number of genera differentially abundant,human gut microbiota; [3],31
same,number of phyla differentially abundant,human gut microbiota; [3],Four
same,a-diversity,"human gut microbiota; combined gnotobiotic experiments, p>0.05, ANOVA",not affected
same,number of genera with significant shifts in abundance,[1]; MTX 100 μg/ml,17
same,Actinobacteria abundance,[1]; [4],increased
same,Bacteroidetes abundance,[1]; [4],decreased
same,lag phase,"[1]; MTX 100 μg/ml, 48 hours",significant delay
same,carrying capacity,"[1]; MTX 100 μg/ml, 48 hours, p=1.9×10-6, paired Student's t-test",significant decrease
same,richness (16S-seq of endpoint samples),"[1]; MTX 100 μg/ml, 4 patient samples",significant decrease
same,number of ASVs with significant shifts in abundance,"[1]; MTX 100 μg/ml, padj<0.01, DESeq",20
same,growth of complex microbial communities,"[1]; stool of 30 MTX-naive patients, MTX 100 μg/ml vs vehicle, 48 hours",significantly impaired
